From patent US8969333B2, “Therapeutic compositions and methods” (The Penn State Research Foundation, priority 2010, dated 2015)
pIC50: −log10 of the molar value.

Columns and labels:
PAD4 = PAD4 (Homo sapiens (Human), UniProt Q9UM07); assay: PAD4 enzyme activity colorimetric assay (citrullination of BAEE); type: biochemical; settings: 0.2 μg PAD4, 5 mM BAEE, 37° C.
Method: PAD4 enzyme activity assays are conducted to determine PAD4 inhibitory activity. PAD4 inhibition efficacy of the inhibitors is determined using a colorimetric assay for citrullination production.
The inhibition efficacy of PAD4 inhibitors were determined by colorimetric measurement of citrulline generated by PAD4 catalyzed citrullination of BAEE. 0.2 μg PAD4 was pre-incubated with inhibitors in 100 μl buffer containing 50 mM Tris-HCl pH7.6, 5 mM CaCl2, 2 mM DTT for 0.5 hr at 37° C. The reaction was started by the addition of BAEE to 5 mM and halted 1.5 hr later with the addition of 25 μl 5 M HClO4. Then the samples were briefly centrifuged at 12000 rpm for 2 min at 4° C. and the supernatant (120 μl) were assayed for citrulline by mixing with 120 μl reagent A (0.5% w/v diacetyl monoxime and 15% w/v NaCl in water) and 240 μl reagent B (1% w/v antipyrine, 0.15% w/v ferric chloride, 25% v/v H2SO4 and 25% v/v H3PO4). The mixtures were boiled for 15 min and cooled to room temperature in ice bath. The absorbance of the reagent mixtures at 464 nm was measured by Thermo BioMate™ 3 spectrophotometer. Efficacies of inhibitors are indicated as relative PAD4 citrullination activity by normalizing the PAD4 activity without inhibitor treatment to 100%.

[1] = Three-month YW3-56 treatment of nude mice: body and vital organ size; type: in vivo, mouse; settings: 10 mg/kg, three months
Method: FIGS. 11a and 11b show results of the effect of long term YW3-56 treatment in mice. A pair of nude mice is mock injected or injected with YW3-56 for three months. RT-qPCR analyses of p53 and its target gene mRNA levels in control and YW3-56 treated mice. […] However, these changes are at low levels and no clear change in liver weight and morphology is observed.
A three-month YW3-56 treatment including daily injection of YW3-56 at 10 mg/kg body weight in a pair of nude mice is performed and the size of mouse body and vital organs is not altered after YW3-56 treatment as shown in FIG. 13.

[2] = tested on: Sesn2 promoter (+733 position); assay: ChIP analysis at the sestrin2 promoter in U2OS cells; type: cell-based, human; settings: 8 μM, 8 hr
Method: Chromatin immunoprecipitation experiments are performed to test if p53 and histone Arg modifications directly regulate Sesn2 gene promoter. ChIP experiments were carried out essentially as described in Li, P. et al., Mol. Cell Biol., 28 (15), 4745-4758 (2008). Antibodies used in ChIP were: anti-p53 (Sigma), anti-PAD4, anti-H3Cit (Abeam), anti-H3R17Me (Abeam). Multiple pairs of primers spanning different regions of Sesn2 are designed to identify a p53 binding site at the Sesn2 gene. p53 binding is relatively […] at the +733 position in untreated U2OS cells, while its binding to this site is dramatically elevated after DNA damage induced by UV irradiation. After 8 hr YW3-56 treatment, p53 binding at the +733 position of Sesn2 is increased >4-fold with a concomitant increase of histone H3 Arg17 methylation (H3R17Me) (FIG. 14G, upper panel). In contrast, after YW3-56 treatment, a decrease in PAD4 binding and histone H3 citrullination (H3Cit) at the +733 position is consistently detected. ChIP results support a model in which p53 associates with while PAD4 dissociates from the Sesn2 promoter after YW3-56 treatment, allowing a decrease in H3Cit and an increase in H3R17Me to facilitate Sesn2 expression.
FIG. 14G, ChIP analyses of p53 and PAD4 association as well as histone H3R17Me and H3Cit modifications at the sestrin2 promoter before and after YW3-56 treatment at 8 μM for 8 hr. […]

U2OS cells = assay: Phase contrast microscopy of U2OS cell growth and morphology; type: cell-based, human; settings: 0-16 μM, 24 hours
Method: Cell growth and morphology changes of cells treated with compounds of the present invention are analyzed using phase contrast microscopy.
A VistaVision invert microscope (VWR Inc.) equipped with a Spot Insight digital camera (NDS, Inc.) and a 10× phase contrast lens were used to analyze cell growth and morphology in phase contrast microscopy analyses.
In this example, U2OS are treated with […] YW3-56 for 24 hours.

p53 and its target genes = assay: RT-qPCR and Western blot of p53 and its target genes in U2OS cells; type: cell-based, human
Method: Western blot and immunostaining was performed essentially as described in Li, P. et al., Oncogene 29 (21), 3153-3162 (2010). Antibodies used in Western blot were anti-p53 (Sigma), anti-PAD4, anti-p21 (Sigma), anti-PUMA (Calbiochem), anti-SESN2 (Abeam), anti-p70S6K (Cell Signaling), anti-p70S6K-pT389 (Cell Signaling), anti-LC3 (Cell Signaling) and anti-β-actin (Sigma) at appropriate dilutions. Anti-LC3B antibody (Cell Signaling) was used for immunostaining. DNA was stained by the DNA dye Hoechst.
RNA was extracted using RNeasy Mini Kit (Qiagen) per manufacturer's instructions. 1 μg RNA was reverse transcribed into cDNA using qScript cDNA SuperMix (Quanta Biosciences) per manufacturer's instructions. Quantitative PCR was performed using SYBR Green SuperMix (Quanta Biosciences) in StepOnePlus Real-Time PCR System (Applied Biosystems). FIG. 10 is a graph showing p53 and its target gene expression induced in S180 cells by YW3-56 in a concentration dependent manner.
U2OS and S-180 cells were cultured in Dulbecco modified Eagle medium (DMEM) supplemented with 10% fetal bovine serum and 1% penicillin-streptomycin in a 5% CO2 incubator. U2OS p53-shRNA and U2OS Ctrl-shRNA cells were generated as described in Li, P. et al., Regulation of p53 target gene expression by peptidylarginine deiminase 4. Mol Cell Bial 28 (15), 4745-4758 (2008). Concentrations and duration of YW3-56 treatment were performed as specified in the figures and text. For starvation assay, U2OS cells were first cultured in serum-free DMEM for 16 hr, 10% fetal bovine serum and different concentrations of YW3-56 was then added back and cells were further incubated for 8 hr before further analyses. SESN2 siRNA (Santa Cruz) and GFP siRNA (Dharmacon Inc.) were transfected into U2OS cells using the XtremeGene siRNA transfection reagents (Roche Inc.). Cells were incubated in the presence of the siRNA for 48 hr before adding YW3-56 and further incubated for 8 hr before analyses.
The relative abundance of each gene is compared with β-actin as a reference. Increase in several p53 target genes, such as p21, GADD45, PUMA, OKL38, DRAM, and Sestrin2, is detected after YW3-88 treatment at 12 μM concentration. […] Increase in p21 and PUMA proteins is detected.

Sequence of PAD4 (Q9UM07 whole entry, species assumed): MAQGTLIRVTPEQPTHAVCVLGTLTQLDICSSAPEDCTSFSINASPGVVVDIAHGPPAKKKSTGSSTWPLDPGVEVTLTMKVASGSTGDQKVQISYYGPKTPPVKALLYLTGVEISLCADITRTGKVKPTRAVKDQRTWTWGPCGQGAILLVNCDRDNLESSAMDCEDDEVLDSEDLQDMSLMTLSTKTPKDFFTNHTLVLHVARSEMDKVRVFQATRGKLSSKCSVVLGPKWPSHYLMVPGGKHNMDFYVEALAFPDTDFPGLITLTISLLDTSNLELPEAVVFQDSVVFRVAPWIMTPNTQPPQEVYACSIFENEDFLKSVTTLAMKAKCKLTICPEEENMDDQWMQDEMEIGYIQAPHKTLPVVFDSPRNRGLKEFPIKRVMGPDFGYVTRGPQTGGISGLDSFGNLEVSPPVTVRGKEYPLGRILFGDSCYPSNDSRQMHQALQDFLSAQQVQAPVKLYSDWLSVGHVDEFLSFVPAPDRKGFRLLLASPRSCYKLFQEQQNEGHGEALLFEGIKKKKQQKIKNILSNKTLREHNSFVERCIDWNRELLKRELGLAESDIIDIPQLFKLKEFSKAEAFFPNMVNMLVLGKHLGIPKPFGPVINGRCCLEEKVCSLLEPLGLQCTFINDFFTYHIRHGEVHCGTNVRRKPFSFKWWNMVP

## CN(C)c1ccc2cc(C(=O)N[C@@H](CCCNC(=N)CCl)C(=O)NCc3ccccc3)ccc2c1 [YW3-56]
PAD4
  pIC50: 5.30 to 6.00
[1]
  size of mouse body and vital organs: not altered
[2]
  PAD4 binding and histone H3 citrullination (H3Cit) at the +733 position: decrease
  p53 binding at the +733 position of Sesn2, increase: > 4 fold
U2OS cells
  U2OS cell density in culture: decreases U2OS cell density
p53 and its target genes; U2OS cells
  DRAM mRNA: not altered
p53 and its target genes; U2OS cells with or without p53 depletion
  p70S6K phosphorylation: inhibited
p53 and its target genes; U2OS cells, concentration dependent
  sestrin1 and 2 mRNA and Sestrin2 protein levels: significantly increased
